These are literature values, as cited in patent US20190359769A1, “PHARMACEUTICAL AGENT FOR IRON CHELATING” (Johannes Gutenberg-Universität Mainz, priority 2017, published 2019).

For data set [1] the following is noted: Fe^3+ complex.
The conditions of data set [2]: in vivo.
For data set [3] the following is noted: one study.
The conditions of data set [4]: studies on rats and humans.

Consider `CC(=O)N(O)CCCCCNC(=O)CCC(=O)N(O)CCCCCNC(=O)CCC(=O)N(O)CCCCCN` [DFO, Deferoxamine], for which, in data set [1], the “logarithmic stability constant of iron complexes” value is on record as 30. In addition, in data set [2], the plasma half-life result is “about 5 minutes”. `Cc1c(O)c(=O)ccn1C` [DFP, Deferiprone]: the “proportion of the DFP dose administered found in the urine in the form of inactive 3-O-glucoronide conjugates” value in data set [3] is reported as 85%. As to `O=C(O)c1ccc(-n2nc(-c3ccccc3O)nc2-c2ccccc2O)cc1` [DFX, Deferasirox], the physiological half-life in data set [4] is listed as 8-16 h.
